Measurements published in ChEMBL document CHEMBL3997815, “Influence of substituent heteroatoms on the cytoprotective properties of pyrimidinol antioxidants” (Bioorg Med Chem, 2017).
Active and inactive are the calls of the source. No cut-off for these calls is given here.

Key:
Lymphocyte [1] = test: Antioxidant activity in FRDA patient derived lymphocytes assessed as inhibition of DEM-mediated lipid peroxidation at 0.1 to 2.5 uM pretreated for 16 hrs followed by DEM addition measured after 120 mins by C11-BODIPY581/591 probe-based FACS analysis; format: functional, cell-based; conditions: Homo sapiens
Lymphocyte [2] = test: Antioxidant activity in FRDA patient derived lymphocytes assessed as inhibition of DEM-mediated reactive oxygen species formation at 0.1 to 2.5 uM pretreated for 16 hrs followed by DEM addition measured after 80 mins by DCFH-DA dye-based flow cytometric analysis; format: functional, cell-based; conditions: Homo sapiens
Lymphocyte [3] = test: Cytoprotective activity in DEM-treated FRDA patient derived lymphocytes assessed as preservation of mitochondrial inner membrane potential at 2.5 uM pretreated for 16 hrs followed by DEM addition measured after 120 mins by TMRM dye-based flow cytometric analysis; format: functional, cell-based; conditions: Homo sapiens
Lymphocyte [4] = test: (§1) Cytoprotective activity against DEM-induced oxidative stress in FRDA patient derived lymphocytes assessed as increase in cell viability at 0.1 to 2.5 uM pretreated for 16 hrs followed by DEM addition measured after 6 hrs by calcein acetoxy-methyl-ester/ethidium homodimer-1 staining-based flow cytometric analysis; format: functional; conditions: Homo sapiens
[5] = Metabolic stability in bovine liver microsomes assessed as compound recovery at 25 uM after 30 mins in presence of beta-NADPH by HPLC method; format: ADME, Bos taurus, microsome; conditions: cattle, read-out: Drug recovery
Lymphocyte [6] = test: Cytoprotective activity in DEM-treated FRDA patient derived lymphocytes assessed as preservation of mitochondrial inner membrane potential at 0.5 uM pretreated for 16 hrs followed by DEM addition measured after 120 mins by TMRM dye-based flow cytometric analysis; format: functional, cell-based; conditions: Homo sapiens
Lymphocyte [7] = test: Cytoprotective activity in FRDA patient derived lymphocytes cultured in glucose-free media supplemented with galactose assessed as total intracellular ATP levels at 1 uM after 48 hrs by luciferin-luciferase reaction-based bioluminescence assay relative to control; format: functional, Homo sapiens
Lymphocyte [8] = test: Cytoprotective activity in FRDA patient derived lymphocytes cultured in glucose-free media supplemented with galactose assessed as total intracellular ATP levels at 5 uM after 48 hrs by luciferin-luciferase reaction-based bioluminescence assay relative to control; format: functional, Homo sapiens
Lymphocyte [9] = test: Cytoprotective activity in FRDA patient derived lymphocytes cultured in glucose-free media supplemented with galactose assessed as total intracellular ATP levels at 25 uM after 48 hrs by luciferin-luciferase reaction-based bioluminescence assay relative to control; format: functional, Homo sapiens
Lymphocyte [10] = test: Antioxidant activity in FRDA patient derived lymphocytes assessed as inhibition of DEM-mediated reactive oxygen species formation at 2.5 uM pretreated for 16 hrs followed by DEM addition measured after 80 mins by DCFH-DA dye-based flow cytometric analysis; format: functional, cell-based; conditions: Homo sapiens
Lymphocyte [11] = test: as §1, with “at” for “at 0.1 to”; format: functional; conditions: Homo sapiens
Lymphocyte [12] = test: Antioxidant activity in FRDA patient derived lymphocytes assessed as inhibition of DEM-mediated lipid peroxidation at 0.1 to 0.5 uM pretreated for 16 hrs followed by DEM addition measured after 120 mins by C11-BODIPY581/591 probe-based FACS analysis; format: functional, cell-based; conditions: Homo sapiens

Row | SMILES | remaining at 0.5 h, 25 µM [5] | inhibition (Lymphocyte [1]) | inhibition (Lymphocyte [2]) | Activity (Lymphocyte [3]) | Activity (Lymphocyte [4]) | further results
1 | CCCCCCCCCCCCCCCCc1nc(N2CCC2)nc(OC2CCC2)c1O |  | Active | Active | Active | Active | 
2 | CCCCCCCCCCCCCCc1nc(N2CCC2)nc(N2CCC2)c1O | 63% | inactive |  | Active | Active | 
3 | COC1=C(OC)C(=O)C(CCCCCCCCCCO)=C(C)C1=O [IDEBENONE] | 61% | Active |  | Active |  | Activity (Lymphocyte [6]): Active; Activity (Lymphocyte [7]): 98%; Activity (Lymphocyte [8]): 73%; Activity (Lymphocyte [9]): 3%
4 | Cc1nc(N2CCC2)nc(N2CCC2)c1O |  | inactive |  |  |  | 
5 | CCCCCCCCCCCCCCCCc1nc(N2CCC2)nc(N2CCC2)c1O | 62% | inactive |  | Active | Active | 
6 | CCCCCCCCCCCCCCc1nc(OC2CCC2)nc(OC2CCC2)c1O | 72% | Active |  | Active |  | inhibition (Lymphocyte [10]): Active; Activity (Lymphocyte [11]): Active; inhibition (Lymphocyte [12]): inactive
7 | Cc1nc(OC2CCC2)nc(N2CCC2)c1O |  | inactive |  |  |  | 
8 | Cc1nc(OC2CCC2)nc(OC2CCC2)c1O |  | inactive |  |  |  | 
9 | Cc1nc(N2CCC2)nc(OC2CCC2)c1O |  | inactive |  |  |  | 

Continued, in another order:

Row | remaining at 0.5 h, 25 µM [5] | SMILES | inhibition (Lymphocyte [1]) | inhibition (Lymphocyte [2]) | Activity (Lymphocyte [3]) | Activity (Lymphocyte [4]) | further results
10 | 63% | CCCCCCCCCCCCCCc1nc(N2CCC2)nc(OC2CCC2)c1O | Active | Active | Active | Active | 
11 | 60% | CCCCCCCCCCCCCCCCc1nc(OC2CCC2)nc(OC2CCC2)c1O | inactive |  |  |  | 
12 | 63% | CCCCCCCCCCCCCCCCc1nc(OC2CCC2)nc(N2CCC2)c1O | Active | Active | Active | Active | 
13 | 77% | CCCCCCCCCCCCCCc1nc(OC2CCC2)nc(N2CCC2)c1O | Active | Active | Active | Active | 
